Like-named read-outs stand apart in the source and are kept apart here.
Columns and labels:
A2058 melanoma cell line = assay: Cytotoxicity against A2058 melanoma cells
[1] = test system: DU145 prostate cancer cell line; assay: Cytotoxicity against DU145 prostate cancer cells
[2] = test system: P388 murine leukemia cell lines; assay: Cytotoxicity against P388 murine leukemia cells
NCI 60 cell line panel = NCI 60 cell line panel evaluation; assay type: cell-based; details: read-out: mean GI50
[3] = Homo sapiens, A2058, read-out: Cytotoxicity IC50, A2058
[4] = Homo sapiens, DU-145, read-out: Cytotoxicity IC50, DU145
[5] = read-out: Cytotoxicity IC50, A2058, A2058 melanoma cells
[6] = read-out: Cytotoxicity IC50, P388, P388 murine leukemia cells
[7] = read-out: Cytotoxicity IC50, DU145, DU145 prostate cancer cells

SMILES | IC50 (A2058 melanoma cell line; [3]) [nM] | IC50 [1, 4] [nM] | IC50 (A2058 melanoma cell line; [5]) [nM] | IC50 [2, 6] [nM] | IC50 [1, 7] [nM] | also measured
COC(=O)C[C@](O)(CCCC(C)(C)O)C(=O)O[C@@H]1C(OC)=C[C@]23CCCN2CCc2cc4c(cc2[C@H]13)OCO4 [compound 1, homoharringtonine, reference compound] | 170 | 230 | – | – | – | –
C[C@@H]1C[C@@H]([C@H](O)CC2CC(=O)NC(=O)C2)C(=O)[C@@H](C)C1 [compound 2, cycloheximide, reference compound] | > 10000 | > 10000 | – | – | – | IC50 ([2]; Mus musculus, P388, read-out: Cytotoxicity IC50, P388): 5600 nM
C=C1[C@@H](O)C[C@H]2C(C)(C)C[C@H](Cl)C[C@]2(C)[C@H]1C[C@H](O)[C@H]1CC(=O)NC1=O [compound 3, chlorolissoclimide] | 250 | 490 | – | – | – | GI50 (NCI 60 cell line panel): 15 nM
C=C1[C@@H](O)C[C@H]2C(C)(C)[C@@H](Cl)[C@H](Cl)C[C@]2(C)[C@H]1C[C@H](O)[C@H]1CC(=O)NC1=O [compound 4, dichlorolissoclimide, reference compound] | – | – | – | – | – | IC50 ([2]; Mus musculus, P388, read-out: Cytotoxicity IC50 against P388): ~400 nM
C=C1[C@@H](OC(C)=O)C[C@H]2C(C)(C)C[C@H](Cl)C[C@]2(C)[C@H]1C[C@H](O)[C@H]1CC(=O)NC1=O [compound 7] | – | – | 3460 | 2100 | 460 | –
C=C1[C@@H](O)C[C@H]2C(C)(C)CCC[C@]2(C)[C@H]1C[C@H](O)[C@H]1CC(=O)NC1=O [compound 8, haterumaimide Q] | – | – | 2340 | 200 | 1490 | –

From paper PMC6021127 (Nature chemistry, 2017)
